Legend:
[1] = system: MCP-1 induced THP-1 migration; assay: Trans-well THP-1 migration assay, MCP-1 as chemoattractant; assay type: cell-based, human; conditions: concentrations above 50 μM
Description: (§1) FIG. 1 is a schematic of the trans-well migration assay. In most experiments, the peptide (wavy line) is added to the upper well with about 50,000 cells (O). The upper and lower wells are separated by a 5 μm or 8 μm pore size PVP-free membrane (- - - -). Chemokine (●) is added to the lower well. After 4 hours, the number of cells that have migrated through the membrane are measured (◯ in lower well).
To determine whether an agent inhibits a chemokine-induced activity, such as macrophage recruitment, varying amounts of the agent are mixed with cells in the presence of a known chemoattractant. For example, a range of known concentrations of an agent, e.g., a chemokine peptide, is incubated with a defined number (e.g., 10^4-10^6) of human THP-1 monocyte cells in individual wells of the top compartment of a trans-well plate. Chemokine (such as MCP-1, MIP1α, IL8 or SDF-1α), at a concentration known to cause significant migration of THP-1 cells in the trans-well migration assay, is placed in the lower compartment (FIG. 1). Cells are then incubated at 37° C. for a period sufficient to allow migration, e.g., 4 hours. After incubation, the cells are gently removed from the top of the filter with a pipette, 20 μl of 20 mM EDTA in simple PBS is added into each top well, and incubated for 20 minutes at 4° C. The filter is carefully flushed with media using a gentle flow, and removed. A standard curve consisting of a two-fold dilution series of THP-1 cells (in 29 μl) is prepared to accurately quantify the number of cells that have migrated. Migrated cells are stained with 3 μl of MTT stock dye solution which is added directly into each well (5 mg/ml in RPMI-1640 without phenol red, Sigma Chemical Co.) and incubated at 37° C. for 4 hours. The media is carefully aspirated from each well, and the converted dye is solubilized by 20 μl of DMSO. Absorbance of converted dye is measured at a wavelength of 595 nm using an ELISA plate reader. The number of migrated cells in each well is then determined by interpolation of the standard curve (see also Imai et al., J. Biol. Chem., 272, 15036 (1997)).
Any method suitable for counting cells can be used, for example, counting with a hemocytometer, incubation of the cells with MTT (see above), or FACS analysis. A negative control assay is also performed, using TGF-β or another non-chemokine chemoattractant (e.g., IL1β or TNFα). To assess whether the agent is cytotoxic, the same concentrations of agent are incubated with THP-1 cells. Agents which 1) are not cytotoxic at levels which inhibit migration, 2) are ineffective at inhibiting the negative control-induced migration, and 3) reduce or inhibit chemokine-induced THP-1 migration, are agents which fall within the scope of the invention.
For this assay, THP-1 cells were maintained at a density of 4×10^5 cells per ml in RPMI-1640 supplemented with 10% fetal calf serum+20 μM 2-mercaptoethanol. Chemotaxis was induced in a 96-well disposable chemotaxis chamber fitted with a […] polycarbonate filter (PVP free, ChemoTX, Neuroprobe Inc., Cabin John). Twenty-nine μl of chemoattractant (recombinant human chemokine; 50 ng/ml, i.e., 5.9 nM) or control (100 ng/ml TGFβ) was added to the lower compartment of each well. The framed filter was aligned with the holes in the corner of the filter frame and placed over the wells. Five×10^4 THP-1 cells in 25 μl of RPMI-1640 culture media were added to the upper compartment. Peptides were dissolved in Milli Q water and then serially diluted in culture medium. In most cases, the serially diluted peptides were added to the upper compartment of the chemotaxis chamber. The chamber was incubated at 37° C. in a humidified atmosphere of 5% CO2 for 4 hours.
After incubation, the cells were gently removed from the top of the filter with a pipette, 20 μl of 20 mM EDTA in PBS was added into each top well, and the mixture was incubated for 20 minutes at 4° C. The filter was then carefully flushed with media using a gentle flow, and removed. […]

[2] = system: MIP1α induced THP-1 migration; assay: Trans-well THP-1 migration assay, MIP1α as chemoattractant; assay type: cell-based, human; conditions: Table 4(b); 100 μM peptide; n.s. = no statistically significant inhibition
Description: as §1
To determine whether an agent inhibits a chemokine-induced activity, such as macrophage recruitment, varying amounts of the agent are mixed with cells in the presence of a known chemoattractant. For example, a range of known concentrations of an agent, e.g., a chemokine peptide, is incubated with a defined number (e.g., 10^4-10^6) of human THP-1 monocyte cells in individual wells of the top compartment of a trans-well plate. […] A standard curve consisting of a two-fold dilution series of THP-1 cells (in 29 μl) is prepared to accurately quantify the number of cells that have migrated. […] Absorbance of converted dye is measured at a wavelength of 595 nm using an ELISA plate reader. The number of migrated cells in each well is then determined by interpolation of the standard curve (see also Imai et al., J. Biol. Chem., 272, 15036 (1997)). […]

T-tropic HIV isolate = assay: HIV infection of Jurkat cells, reverse transcriptase assay of culture medium; assay type: cell-based; conditions: 100 μM peptide; 3 weeks in culture
Description: Peptides were added on day 0, one hour prior to infection of the cells with HIV isolate. The full length chemokine SDF-1α was used as a positive control.
(SEQ ID NO:1), or (iv) 100 ng/ml SDF-1, which should bind to and block all CXCR-4 receptors. After 3 weeks in culture, viral replication was assessed by a reverse transcriptase assay of the culture medium. Peptide 3(1-12)[MCP-1]
Since peptide 2(1-15)[MCP1] […] (SEQ ID NO:3) binds and inhibits an epitope used by HIV for cell entry but not by MCP-1 for signaling. To test this hypothesis, the same HIV infection assay described above was employed to test whether peptide 2(1-15)[MCP-1] (SEQ ID NO:3) inhibits HIV infection of Jurkat cells. At 100 μM, peptide 2(1-15)[MCP-1]

EICADPKQKWVQ [Peptide 3]
effect on MCP-1 induced THP-1 migration at concentrations above 50 μM [1]: abolished all of the MCP-1 induced THP-1 migration
Extent of inhibition of THP-1 migration at 100 μM, MIP1α [2]: 99%
inhibition of Jurkat cell infection by HIV (T-tropic HIV isolate): effective inhibitor

— patent US6989435B2, “Compounds and methods to inhibit or augment an inflammatory response” (Cambridge University Technical Services Ltd., priority 1997, dated 2006)
